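Exposure lasted 48 hours, with cells grown in 96-well plates and compounds tested at five concentrations. GI50 marks 50% less growth. TGI denotes the concentration required for complete inhibition of growth.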 *1 amine or outer side, *2 acyl side, *3 side chain or, on linkers, in order; H or OH if unused. Where a SMILES comes first, the peptide text is derived from it. [ ]: non-standard residue; d: D form. The star is where a group is joined. X11 = C/C=C/CC(C)C(O)[C@H](N[*:1])C(=O)[*:2]; Decanoyl = CCCCCCCCCC(=O)*; Leu(ol) = CC(C)C[C@H](N)CO; Iva = CC[C@](C)(N)C(=O)O; Aib = CC(C)(N)C(=O)O
Assays:
Assay in all cases: NCI-60 cell line screen, 48 h
HT29 colon = tested on: HT29 colon
COLO 205 colon = tested on: COLO 205 colon
CAKI-1 renal = tested on: CAKI-1 renal
UACC-62 melanoma = tested on: UACC-62 melanoma
T-47D breast = tested on: T-47D breast
NCI/ADR-RES ovarian = tested on: NCI/ADR-RES ovarian
SK-MEL-28 melanoma = tested on: SK-MEL-28 melanoma
HCC-2998 colon = tested on: HCC-2998 colon
SN12C renal = tested on: SN12C renal
U251 CNS = tested on: U251 CNS
SK-MEL-2 melanoma = tested on: SK-MEL-2 melanoma
HCT-15 colon = tested on: HCT-15 colon
OVCAR-8 ovarian = tested on: OVCAR-8 ovarian
HOP-92 NSCLC = tested on: HOP-92 NSCLC
SNB-19 CNS = tested on: SNB-19 CNS
OVCAR-4 ovarian = tested on: OVCAR-4 ovarian
SF-539 CNS = tested on: SF-539 CNS
ACHN renal = tested on: ACHN renal
PC-3 prostate = tested on: PC-3 prostate
NCI-H460 lung = tested on: NCI-H460 lung
CCRF-CEM leukemia = tested on: CCRF-CEM leukemia
OVCAR-5 ovarian = tested on: OVCAR-5 ovarian
MDA-MB-231 breast = tested on: MDA-MB-231 breast
MCF7 breast = tested on: MCF7 breast
SK-OV-3 ovarian = tested on: SK-OV-3 ovarian
MDA-MB-435 = tested on: MDA-MB-435
MALME-3M melanoma = tested on: MALME-3M melanoma
786-0 renal = tested on: 786-0 renal
KM12 colon = tested on: KM12 colon
M14 melanoma = tested on: M14 melanoma
HS 578T breast = tested on: HS 578T breast
SR leukemia = tested on: SR leukemia
TK-10 renal = tested on: TK-10 renal
SK-MEL-5 melanoma = tested on: SK-MEL-5 melanoma
NCI-H23 lung = tested on: NCI-H23 lung
SF-268 CNS = tested on: SF-268 CNS
MOLT-4 leukemia = tested on: MOLT-4 leukemia
RPMI-8226 leukemia = tested on: RPMI-8226 leukemia
HOP-62 NSCLC = tested on: HOP-62 NSCLC
BT-549 breast = tested on: BT-549 breast
RXF 393 renal = tested on: RXF 393 renal
K-562 leukemia = tested on: K-562 leukemia
A549 NSCLC = tested on: A549 NSCLC
A498 renal = tested on: A498 renal
OVCAR-3 ovarian = tested on: OVCAR-3 ovarian
HCT-116 colon = tested on: HCT-116 colon
SNB-75 CNS = tested on: SNB-75 CNS
HL-60(TB) leukemia = tested on: HL-60(TB) leukemia
UACC-257 melanoma = tested on: UACC-257 melanoma
NCI-H522 lung = tested on: NCI-H522 lung
SF-295 CNS = tested on: SF-295 CNS
LOX IMVI melanoma = tested on: LOX IMVI melanoma
DU-145 prostate = tested on: DU-145 prostate
NCI-H226 lung = tested on: NCI-H226 lung
UO-31 renal = tested on: UO-31 renal
IGROV1 ovarian = tested on: IGROV1 ovarian
EKVX NSCLC = tested on: EKVX NSCLC
SW-620 colon = tested on: SW-620 colon

SMILES: C/C=C/CC(C)C(O)[C@H](NC(=O)[C@@H]1CCCN1C(=O)C(C)(C)NC(=O)CCCCCCCCC)C(=O)N[C@@](C)(CC)C(=O)N[C@@H](CCC(N)=O)C(=O)N[C@H](CCC(N)=O)C(=O)NC(C)(C)C(=O)NC(C)(C)C(=O)N[C@@H](CCC(N)=O)C(=O)N[C@H](CC(C)C)C(=O)N[C@H](CO)CC(C)C (stereo partly drawn) (Decanoyl-[Aib]P[X11][Iva]Q[dQ][Aib][Aib]Q[dL][Leu(ol)])
- GI50 (HT29 colon): 2.41 µM
- TGI (HT29 colon): 5.68 µM
- GI50 (COLO 205 colon): 2 µM
- TGI (COLO 205 colon): 4.44 µM
- GI50 (CAKI-1 renal): 2.13 µM
- TGI (CAKI-1 renal): 5.02 µM
- GI50 (UACC-62 melanoma): 1.75 µM
- TGI (UACC-62 melanoma): 3.38 µM
- GI50 (T-47D breast): 2.31 µM
- TGI (T-47D breast): 5.95 µM
- GI50 (NCI/ADR-RES ovarian): 2.04 µM
- TGI (NCI/ADR-RES ovarian): 4.45 µM
- GI50 (SK-MEL-28 melanoma): 1.76 µM
- TGI (SK-MEL-28 melanoma): 3.16 µM
- GI50 (HCC-2998 colon): 2.16 µM
- TGI (HCC-2998 colon): 4.63 µM
- GI50 (SN12C renal): 2.17 µM
- TGI (SN12C renal): 4.92 µM
- GI50 (U251 CNS): 1.75 µM
- TGI (U251 CNS): 3.36 µM
- GI50 (SK-MEL-2 melanoma): 1.81 µM
- TGI (SK-MEL-2 melanoma): 3.49 µM
- GI50 (HCT-15 colon): 2.54 µM
- TGI (HCT-15 colon): 6.93 µM
- GI50 (OVCAR-8 ovarian): 1.84 µM
- TGI (OVCAR-8 ovarian): 3.99 µM
- GI50 (HOP-92 NSCLC): 1.84 µM
- TGI (HOP-92 NSCLC): 4.08 µM
- GI50 (SNB-19 CNS): 1.7 µM
- TGI (SNB-19 CNS): 3.15 µM
- GI50 (OVCAR-4 ovarian): 3.91 µM
- TGI (OVCAR-4 ovarian): 9.05 µM
- GI50 (SF-539 CNS): 1.76 µM
- TGI (SF-539 CNS): 3.17 µM
- GI50 (ACHN renal): 2.45 µM
- TGI (ACHN renal): 6.09 µM
- GI50 (PC-3 prostate): 1.84 µM
- TGI (PC-3 prostate): 3.65 µM
- GI50 (NCI-H460 lung): 1.86 µM
- TGI (NCI-H460 lung): 3.45 µM
- GI50 (CCRF-CEM leukemia): 2.04 µM
- TGI (CCRF-CEM leukemia): 4.4 µM
- GI50 (OVCAR-5 ovarian): 1.73 µM
- TGI (OVCAR-5 ovarian): 3.29 µM
- GI50 (MDA-MB-231 breast): 1.71 µM
- TGI (MDA-MB-231 breast): 3.16 µM
- GI50 (MCF7 breast): 1.81 µM
- TGI (MCF7 breast): 3.51 µM
- GI50 (SK-OV-3 ovarian): 3.85 µM
- TGI (SK-OV-3 ovarian): 8.71 µM
- GI50 (MDA-MB-435): 1.68 µM
- TGI (MDA-MB-435): 3.05 µM
- GI50 (MALME-3M melanoma): 1.56 µM
- TGI (MALME-3M melanoma): 2.96 µM
- GI50 (786-0 renal): 1.81 µM
- TGI (786-0 renal): 3.35 µM
- GI50 (KM12 colon): 1.95 µM
- TGI (KM12 colon): 3.94 µM
- GI50 (M14 melanoma): 1.81 µM
- TGI (M14 melanoma): 3.44 µM
- GI50 (HS 578T breast): 1.78 µM
- TGI (HS 578T breast): 3.49 µM
- GI50 (SR leukemia): 1.37 µM
- TGI (SR leukemia): 3.07 µM
- GI50 (TK-10 renal): 2.13 µM
- TGI (TK-10 renal): 4.93 µM
- GI50 (SK-MEL-5 melanoma): 1.79 µM
- TGI (SK-MEL-5 melanoma): 3.3 µM
- GI50 (NCI-H23 lung): 2.32 µM
- TGI (NCI-H23 lung): 5.42 µM
- GI50 (SF-268 CNS): 1.83 µM
- TGI (SF-268 CNS): 3.56 µM
- GI50 (MOLT-4 leukemia): 2.33 µM
- TGI (MOLT-4 leukemia): 4.93 µM
- GI50 (RPMI-8226 leukemia): 2.05 µM
- TGI (RPMI-8226 leukemia): 4.51 µM
- GI50 (HOP-62 NSCLC): 1.99 µM
- TGI (HOP-62 NSCLC): 4.06 µM
- GI50 (BT-549 breast): 1.98 µM
- TGI (BT-549 breast): 3.67 µM
- GI50 (RXF 393 renal): 2.15 µM
- TGI (RXF 393 renal): 4.01 µM
- GI50 (K-562 leukemia): 1.95 µM
- TGI (K-562 leukemia): 4 µM
- GI50 (A549 NSCLC): 3.02 µM
- TGI (A549 NSCLC): 9.38 µM
- GI50 (A498 renal): 1.94 µM
- TGI (A498 renal): 3.68 µM
- GI50 (OVCAR-3 ovarian): 2.02 µM
- TGI (OVCAR-3 ovarian): 4.35 µM
- GI50 (HCT-116 colon): 2.41 µM
- TGI (HCT-116 colon): 6.09 µM
- GI50 (SNB-75 CNS): 1.48 µM
- TGI (SNB-75 CNS): 2.98 µM
- GI50 (HL-60(TB) leukemia): 1.93 µM
- TGI (HL-60(TB) leukemia): 4.12 µM
- GI50 (UACC-257 melanoma): 1.77 µM
- TGI (UACC-257 melanoma): 3.37 µM
- GI50 (NCI-H522 lung): 1.7 µM
- TGI (NCI-H522 lung): 3.36 µM
- GI50 (SF-295 CNS): 1.76 µM
- TGI (SF-295 CNS): 3.32 µM
- GI50 (LOX IMVI melanoma): 1.73 µM
- TGI (LOX IMVI melanoma): 3.3 µM
- GI50 (DU-145 prostate): 1.73 µM
- TGI (DU-145 prostate): 3.13 µM
- GI50 (NCI-H226 lung): 2.07 µM
- TGI (NCI-H226 lung): 4.56 µM
- GI50 (UO-31 renal): 1.56 µM
- TGI (UO-31 renal): 3.12 µM
- GI50 (IGROV1 ovarian): 2.34 µM
- TGI (IGROV1 ovarian): 6.31 µM
- GI50 (EKVX NSCLC): 1.85 µM
- TGI (EKVX NSCLC): 3.77 µM
- GI50 (SW-620 colon): 2.75 µM
- TGI (SW-620 colon): 7.17 µM

Source: PubChem BioAssay (NCI)
